# Measurements: US11739070B2, “C5A receptor modulators” (IDORSIA PHARMACEUTICALS LTD, priority 2018, dated 2023)
# Target: T1, C5AR1 (Homo sapiens, UniProt P21730)
# T1 construct: host or cells: CHO-K1
# T1 sequence (P21730 1-350): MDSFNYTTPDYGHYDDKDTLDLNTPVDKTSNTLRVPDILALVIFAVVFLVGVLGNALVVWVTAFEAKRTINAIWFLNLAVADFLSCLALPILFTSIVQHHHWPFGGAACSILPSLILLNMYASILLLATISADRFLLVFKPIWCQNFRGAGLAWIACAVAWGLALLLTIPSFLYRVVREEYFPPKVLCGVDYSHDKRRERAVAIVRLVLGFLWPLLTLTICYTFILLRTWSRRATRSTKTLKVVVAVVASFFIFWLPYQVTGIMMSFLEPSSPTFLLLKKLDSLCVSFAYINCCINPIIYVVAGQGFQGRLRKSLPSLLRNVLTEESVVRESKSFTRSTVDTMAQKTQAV
# Experiment: hC5a DISCO IC50 assay (PathHunter beta-arrestin, antagonist mode)
# Type: cell-based
# Conditions: CHO-K1 C5AR1 beta-arrestin cell line; antagonist vs 1-10 nM C5a agonist; geometric mean values; read-out: C5aR IC50
# Summary of the method: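 Antagonist added first, then 1-10 nM C5a agonist; cells incubated 1.5 h at 37 °C. Beta-arrestin signal developed with PathHunter detection reagent, 45 min at RT. IC50 in nmol/l from serial antagonist dilutions, reported as geometric mean of several measurements.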
row,IC50 [nM],SMILES
1,31,"Cc1cccc(F)c1N1CC[C@@H](n2c(=O)n(Cc3ccccc3C(F)(F)F)c3c(OCC4COC(C)(C)O4)cccc32)C1 (stereo partly drawn) [Example 151, 4-(2,2-Dimethyl-[1,3]dioxolan-4-ylmethoxy)-1-[(R)-1-(2-fluoro-6-methyl-phenyl)-pyrrolidin-3-yl]-3-(2-trifluoromethyl-benzyl)-1,3-dihydro-benzoimidazol-2-one]"
2,38,"Cc1cccc(F)c1N1CC[C@@H](n2c(=O)n(Cc3ccccc3C(F)(F)F)c3c(OCC(O)CO)cccc32)C1 (stereo partly drawn) [Example 152, 4-(2,3-Dihydroxy-propoxy)-1-[(R)-1-(2-fluoro-6-methyl-phenyl)-pyrrolidin-3-yl]-3-(2-trifluoromethyl-benzyl)-1,3-dihydro-benzoimidazol-2-one]"
3,215,"COc1cccc2c1n(Cc1cncnc1C(F)(F)F)c(=O)n2[C@@H]1CCN(c2c(F)cccc2C#N)C1 [Example 153, 3-Fluoro-2-{(R)-3-[4-methoxy-2-oxo-3-(4-trifluoromethyl-pyrimidin-5-ylmethyl)-2,3-dihydro-benzoimidazol-1-yl]-pyrrolidin-1-yl}-benzonitrile]"
4,23,"COc1cccc2c1n(Cc1ccccc1C(F)(F)F)c(=O)n2[C@@H]1CCN(c2c(F)cccc2[N+](=O)[O-])C1 [Example 154, 1-[(R)-1-(2-Fluoro-6-nitro-phenyl)-pyrrolidin-3-yl]-4-methoxy-3-(2-trifluoromethyl-benzyl)-1,3-dihydro-benzoimidazol-2-one]"
5,15,"COc1cccc2c1n(Cc1ccccc1C(F)(F)F)c(=O)n2[C@@H]1CCN(c2c(N)cccc2F)C1 [Example 155, 1-[(R)-1-(2-Amino-6-fluoro-phenyl)-pyrrolidin-3-yl]-4-methoxy-3-(2-trifluoromethyl-benzyl)-1,3-dihydro-benzoimidazol-2-one]"
6,21,"COc1cccc2c1n(Cc1ccccc1C(F)(F)F)c(=O)n2[C@@H]1CCN(c2c(F)cccc2Br)C1 [Example 156, 1-[(R)-1-(2-Bromo-6-fluoro-phenyl)-pyrrolidin-3-yl]-4-methoxy-3-(2-trifluoromethyl-benzyl)-1,3-dihydro-benzoimidazol-2-one]"
7,630,"COc1cccc2c1n(Cc1ccccc1C(F)(F)F)c(=O)n2[C@@H]1CCN(c2nncc(Cl)c2Cl)C1 [Example 157, 1-[(R)-1-(4,5-Dichloro-pyridazin-3-yl)-pyrrolidin-3-yl]-4-methoxy-3-(2-trifluoromethyl-benzyl)-1,3-dihydro-benzoimidazol-2-one]"
8,683,"COc1cccc2c1n(Cc1ccccc1C(F)(F)F)c(=O)n2[C@@H]1CCN(c2c(Cl)cnnc2Cl)C1 [Example 158, 1-[(R)-1-(3,5-Dichloro-pyridazin-4-yl)-pyrrolidin-3-yl]-4-methoxy-3-(2-trifluoromethyl-benzyl)-1,3-dihydro-benzoimidazol-2-one]"
9,73,"COc1cccc2c1n(Cc1ccccc1C(F)(F)F)c(=O)n2[C@@H]1CCN(c2c(F)cccc2C#CCN2CCOCC2)C1 [Example 159, 1-{(R)-1-[2-Fluoro-6-(3-morpholin-4-yl-prop-1-ynyl)-phenyl]-pyrrolidin-3-yl}-4-methoxy-3-(2-trifluoromethyl-benzyl)-1,3-dihydro-benzoimidazol-2-one]"
10,35,"COc1cccc2c1n(Cc1ccccc1C(F)(F)F)c(=O)n2[C@@H]1CCN(c2ccccc2F)C1 [Example 160, 1-[(R)-1-(2-Fluoro-phenyl)-pyrrolidin-3-yl]-4-methoxy-3-(2-trifluoromethyl-benzyl)-1,3-dihydro-benzoimidazol-2-one]"

# The remaining lines, values behind:
row,SMILES,IC50 [nM]
1,"COc1cccc2c1n(Cc1ccccc1C(F)(F)F)c(=O)n2[C@@H]1CCN(c2c(F)cccc2CN2CCNCC2)C1 [Example 135, 1-[(R)-1-(2-Fluoro-6-piperazin-1-ylmethyl-phenyl)-pyrrolidin-3-yl]-4-methoxy-3-(2-trifluoromethyl-benzyl)-1,3-dihydro-benzoimidazol-2-one]",5760
2,"COc1cccc2c1n(Cc1ccccc1C(F)(F)F)c(=O)n2[C@@H]1CCN(c2c(F)cccc2CN2CCC(N(C)C)CC2)C1 [Example 136, 1-{(R)-1-[2-(4-Dimethylamino-piperidin-1-ylmethyl)-6-fluoro-phenyl]-pyrrolidin-3-yl}-4-methoxy-3-(2-trifluoromethyl-benzyl)-1,3-dihydro-benzoimidazol-2-one]",1590
3,"COc1cccc2c1n(Cc1ccccc1C(F)(F)F)c(=O)n2[C@@H]1CCN(c2c(F)cccc2CN2CCC(OC)CC2)C1 [Example 137, 1-{(R)-1-[2-Fluoro-6-(4-methoxy-piperidin-1-ylmethyl)-phenyl]-pyrrolidin-3-yl}-4-methoxy-3-(2-trifluoromethyl-benzyl)-1,3-dihydro-benzoimidazol-2-one]",133
4,"COc1cccc2c1n(Cc1ccccc1C(F)(F)F)c(=O)n2[C@@H]1CCN(c2c(F)cccc2CN2CCC(OC)C2)C1 (stereo partly drawn) [Example 138, 1-{(R)-1-[2-Fluoro-6-(3-methoxy-pyrrolidin-1-ylmethyl)-phenyl]-pyrrolidin-3-yl}-4-methoxy-3-(2-trifluoromethyl-benzyl)-1,3-dihydro-benzoimidazol-2-one]",156
5,"COCCN(C)Cc1cccc(F)c1N1CC[C@@H](n2c(=O)n(Cc3ccccc3C(F)(F)F)c3c(OC)cccc32)C1 [Example 139, 1-[(R)-1-(2-Fluoro-6-{[(2-methoxy-ethyl)-methyl-amino]-methyl}-phenyl)-pyrrolidin-3-yl]-4-methoxy-3-(2-trifluoromethyl-benzyl)-1,3-dihydro-benzoimidazol-2-one]",227
6,"CCN(CCO)Cc1cccc(F)c1N1CC[C@@H](n2c(=O)n(Cc3ccccc3C(F)(F)F)c3c(OC)cccc32)C1 [Example 140, 1-[(R)-1-(2-{[Ethyl-(2-hydroxy-ethyl)-amino]-methyl}-6-fluoro-phenyl)-pyrrolidin-3-yl]-4-methoxy-3-(2-trifluoromethyl-benzyl)-1,3-dihydro-benzoimidazol-2-one]",1030
7,"COc1cccc2c1n(Cc1ccccc1C(F)(F)F)c(=O)n2[C@@H]1CCN(c2c(F)cccc2CN(CCO)CCO)C1 [Example 141, 1-[(R)-1-(2-{[Bis-(2-hydroxy-ethyl)-amino]-methyl}-6-fluoro-phenyl)-pyrrolidin-3-yl]-4-methoxy-3-(2-trifluoromethyl-benzyl)-1,3-dihydro-benzoimidazol-2-one]",2130
8,"COCC(C)NCc1cccc(F)c1N1CC[C@@H](n2c(=O)n(Cc3ccccc3C(F)(F)F)c3c(OC)cccc32)C1 (stereo partly drawn) [Example 142, 1-((R)-1-{2-Fluoro-6-[(2-methoxy-1-methyl-ethylamino)-methyl]-phenyl}-pyrrolidin-3-yl)-4-methoxy-3-(2-trifluoromethyl-benzyl)-1,3-dihydro-benzoimidazol-2-one]",108
9,"COc1cccc2c1n(Cc1ccccc1C(F)(F)F)c(=O)n2[C@@H]1CCN(c2c(F)cccc2CN2CC(OC)C2)C1 [Example 143, 1-{(R)-1-[2-Fluoro-6-(3-methoxy-azetidin-1-ylmethyl)-phenyl]-pyrrolidin-3-yl}-4-methoxy-3-(2-trifluoromethyl-benzyl)-1,3-dihydro-benzoimidazol-2-one]",108
10,"COc1cccc2c1n(Cc1ccccc1C(F)(F)F)c(=O)n2C1CCN(C(=O)OC(C)(C)C)C(C)C1 (centres unmarked) [Example 144, 4-[4-Methoxy-2-oxo-3-(2-trifluoromethyl-benzyl)-2,3-dihydro-benzoimidazol-1-yl]-2-methyl-piperidine-1-carboxylic acid tert-butyl ester]",312
11,"COc1cccc2c1n(Cc1ccccc1C(F)(F)F)c(=O)n2C1CCN(c2c(F)cccc2C=O)C(C)C1 (centres unmarked) [Example 145, 3-Fluoro-2-{4-[4-methoxy-2-oxo-3-(2-trifluoromethyl-benzyl)-2,3-dihydro-benzoimidazol-1-yl]-2-methyl-piperidin-1-yl}-benzaldehyde]",16
12,"COc1cccc2c1n(Cc1ccccc1C(F)(F)F)c(=O)n2C1CCN(C(=O)OC(C)(C)C)CC1C (centres unmarked) [Example 146, 4-[4-Methoxy-2-oxo-3-(2-trifluoromethyl-benzyl)-2,3-dihydro-benzoimidazol-1-yl]-3-methyl-piperidine-1-carboxylic acid tert-butyl ester]",201
13,"COc1cccc2c1n(Cc1ccccc1C(F)(F)F)c(=O)n2C1CCN(c2c(C)cccc2F)CC1C (centres unmarked) [Example 147, 1-[1-(2-Fluoro-6-methyl-phenyl)-3-methyl-piperidin-4-yl]-4-methoxy-3-(2-trifluoromethyl-benzyl)-1,3-dihydro-benzoimidazol-2-one]",20
14,"COc1cccc2c1n(Cc1ccccc1C(F)(F)F)c(=O)n2[C@@H]1CCN(c2c(F)cccc2C(C)OC)C1 (stereo partly drawn) [Example 148, 1-{(R)-1-[2-Fluoro-6-(1-methoxy-ethyl)-phenyl]-pyrrolidin-3-yl}-4-methoxy-3-(2-trifluoromethyl-benzyl)-1,3-dihydro-benzoimidazol-2-one]",28
15,"Cc1cccc(F)c1N1CC[C@@H](n2c(=O)n(Cc3ccccc3C(F)(F)F)c3c(OC4COC4)cccc32)C1 [Example 149, 1-[(R)-1-(2-Fluoro-6-methyl-phenyl)-pyrrolidin-3-yl]-4-(oxetan-3-yloxy)-3-(2-trifluoromethyl-benzyl)-1,3-dihydro-benzoimidazol-2-one]",14
16,"Cc1cccc(F)c1N1CC[C@@H](n2c(=O)n(Cc3ccccc3C(F)(F)F)c3c(OCCO)cccc32)C1 [Example 150, 1-[(R)-1-(2-Fluoro-6-methyl-phenyl)-pyrrolidin-3-yl]-4-(2-hydroxy-ethoxy)-3-(2-trifluoromethyl-benzyl)-1,3-dihydro-benzoimidazol-2-one]",11
